Data set [1] concerns HL-60 leukemia cells. Description: Cytotoxicity assay: proliferation of HL-60 cells by 3H-thymidine uptake. Type of data set: cell-based. The settings on record: Homo sapiens, doxorubicin positive control at 1 μM on the plate of the test compound, read-out: % Inhibition of DOX (1 μM).
The test system of data set [2] is mice. To be noted: intraperitoneal administration (route stated for arsenic trioxide); cited from earlier work.

By inhibition is commonly meant the relative decrease from the control value, in per cent. For the compound `COc1cccc2c1C(=O)c1c(O)c3c(c(O)c1C2=O)C[C@@](O)(C(=O)CO)C[C@@H]3O[C@H]1C[C@H](N)[C@H](O)[C@H](C)O1` [DOX, doxorubicin], the inhibition at 1 µM in data set [1] came out at 100%.
For the compound arsenic trioxide, the “LD50 (a dose at which 50% of animals die due to acute toxicity)” value in data set [2] is on record as 10 mg/kg.
